According to patent US20060106106A1, “Beta-hydroxyphenylalkylamines and their use for treating glaucoma” (priority 2002, published 2006):
Where a name gives a salt, the structure may show the parent alone.

What was measured:
5-HT2A [1] = molecular target: T1, 5-HT2A (Rattus norvegicus, UniProt P14842); test: 5-HT2 Functional Assay: [Ca2+]i Mobilization (FLIPR) in A7r5 cells; assay type: cell-based; conditions: for Emax: A7r5 cells, FLIPR, percentage of maximum 5-HT-induced response, read-out: 5-HT2A % Emax (Ca+2 Assay)
T1 construct: [^3H]myo-inositol-labeled A7r5 rat vascular smooth muscle cells; endogenous in cells; host or cells: A7r5 rat vascular smooth muscle cells
Protocol: 5-HT2 Functional Assay: [Ca^2+]i Mobilization
The receptor-mediated mobilization on intracellular calcium ([Ca^2+]i) was studied using the Fluorescence Imaging Plate Reader (FLIPR) instrument. Rat vascular smooth muscle cells, A7r5, were grown in a normal media of DMEM/10% FBS and 10 μg/mL gentamycin. Confluent cell monolayers were trypsinized, pelleted, and re-suspended in normal media. Cells were seeded in a 50 μL volume at a density of 20,000 cells/well in a black wall, 96-well tissue culture plate and grown for 2 days.
On the day of the experiment, one vial of FLIPR Calcium Assay Kit dye was re-suspended in 50 mL of a FLIPR buffer consisting of Hank's Balanced Salt Solution (HBSS), 20 mM HEPES, and 2.5 mM probenecid, pH 7.4. Cells were loaded with the calcium-sensitive dye by addition of an equal volume (50 μL) to each well of the 96-well plate and incubated with dye for 1 h at 23° C.
Compounds were diluted 1:50 in 20% DMSO/20% Ethanol. For “hit” screening, compounds were further diluted 1:10 in FLIPR buffer and tested at a final concentration of 10 μM.
The compound plate and cell plate were placed in the FLIPR instrument. At the beginning of an experimental run, a signal test was performed to check the basal fluorescence signal from the dye-loaded cells and the uniformity of the signal across the plate. The basal fluorescence was adjusted between 8000-12000 counts by modifying the exposure time, the camera F-stop, or the laser power. Instrument settings for a typical assay were the following: laser power 0.3-0.6 W, camera F-stop F/2, and exposure time 0.4 sec. An aliquot (25 μL) of the test compound was added to the existing 100 μL dye-loaded cells at a dispensing speed of 50 μL/sec. Fluorescence data were collected in real-time at 1.0 sec intervals for the first 60 secs and at 6.0 sec intervals for an additional 120 secs. Responses were measured as peak fluorescence intensity minus basal and where appropriate were expressed as a percentage of a maximum 5-HT-induced response.

5-HT2A [2] = molecular target: T1, 5-HT2A; test: 5-HT2 Functional Assay: Phosphoinositide (PI) Turnover Assay in A7r5 cells; assay type: cell-based; conditions: for Emax: A7r5 cells, relative to 5-HT (set at 100%)
Protocol: 5-HT2 Functional Assay: Phosphoinositide (PI) Turnover Assay
The relative agonist activity of serotonergic compounds at the 5-HT2 receptor can be determined in vitro using the ability of the compounds to stimulate the production of [^3H]inositol phosphates in [^3H]myo-inositol-labeled A7r5 rat vascular smooth muscle cells by their ability to activate the enzyme phospholipase C. These cells are grown in culture plates, maintained in a humidified atmosphere of 5% CO2 and 95% air and fed semi-weekly with Dulbecco's modified Eagle medium (DMEM) containing 4.5 g/L glucose and supplemented with 2 mM glutamine, 10 μg/ml gentamicin, and 10% fetal bovine serum. For the purpose of conducting the phosphoinositide (PI) turnover experiments, the A7r5 cells are cultured in 24-well plates as previously [J. Pharmacol. Expt. Ther. 286, 411 (1998)]. Confluent cells are exposed for 24-30 hrs to 1.5 μCi [^3H]-myo-inositol (18.3 Ci/mmol) in 0.5 ml of serum-free medium. Cells are then rinsed once with DMEM/F-12 containing 10 mM LiCl prior to incubation with the test agent (or solvent as the control) in 1.0 mL of the same medium for 1 hr at 37° C., after which the medium is aspirated and 1 ml of cold 0.1 M formic acid added to stop the reaction. The chromatographic separation of [^3H]-inositol phosphates ([^3H]-IPs) on an AG-1-X8 column is performed as previously described [J. Pharmacol. Expt. Ther. 286, 411 (1998)] with sequential washes with H2O and 50 mM ammonium formate, followed by elution of the total [^3H]-IPs fraction with 1.2 M ammonium formate containing 0.1 M formic acid. The eluate (4 mL) is collected, mixed with 15 ml scintillation fluid, and the total [^3H]-IPs determined by scintillation counting on a beta-counter. Concentration-response data are analyzed by the sigmoidal fit function of the Origin Scientific Graphics software (Microcal Software, Northampton, Mass.) to determine agonist potency (EC50 value) and efficacy (Emax). Serotonin (5-HT) is used as a positive control (standard) agonist compound and the efficacy of test compounds is compared to that of 5-HT (set at 100%).

T1 sequence (P14842 whole entry): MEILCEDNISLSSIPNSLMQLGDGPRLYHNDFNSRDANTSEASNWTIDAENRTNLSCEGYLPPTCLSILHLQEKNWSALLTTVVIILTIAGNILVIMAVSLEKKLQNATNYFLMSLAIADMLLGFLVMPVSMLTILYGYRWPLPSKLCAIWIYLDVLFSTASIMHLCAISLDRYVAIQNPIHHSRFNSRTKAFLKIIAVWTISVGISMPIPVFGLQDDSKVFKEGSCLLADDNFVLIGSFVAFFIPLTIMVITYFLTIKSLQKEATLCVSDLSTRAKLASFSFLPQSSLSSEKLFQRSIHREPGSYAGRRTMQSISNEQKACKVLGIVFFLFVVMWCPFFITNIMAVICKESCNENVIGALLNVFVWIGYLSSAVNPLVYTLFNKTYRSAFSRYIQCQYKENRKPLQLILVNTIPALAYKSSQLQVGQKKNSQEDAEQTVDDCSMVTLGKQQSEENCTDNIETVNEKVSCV

| Structure (SMILES) | melting point | Emax (5-HT2A [1]) | EC50 (5-HT2A [1]) | EC50 (5-HT2A [2]) | Emax (5-HT2A [2]) |
| --- | --- | --- | --- | --- | --- |
| COc1cc([C@@H](O)[C@@H](C)N)c(OC)cc1Br (as salt: hydrochloride) [Compound 11, (−)-threo-(1R,2R)-1-Hydroxy-1-(4-bromo-2,5-dimethoxyphenyl)-2-aminopropane Hydrochloride] | 214 to 215 °C |  |  |  |  |
| COc1ccc(OC)c(C(O)C(C)N)c1 (stereo not shown) [Compound 1, reference compound] |  | 9% |  |  |  |
| COc1cc([C@@H](OC)[C@@H](C)N)c(OC)cc1Br [Compound 14, (−)-thero-(1R,2R)-1-Methoxy-1-(4-bromo-2,5-dimethoxyphenyl)-2-aminopropane Oxalate] |  | 93% | 126 nM | 42.4 nM | 111% |
| COc1cc(C(O)CN)c(OC)cc1CCCc1ccccc1 (racemic) (as salt: hydrochloride) [Compound 5, (±)1-Hydroxy-1-[4-(3-phenylpropyl)-2,5-dimethoxyphenyl]-2-aminoethane Hydrochloride] | 174 to 176 °C |  |  |  |  |
| COc1cc(C(OC)C(C)N)c(OC)cc1Br (single isomer, unassigned; (+)) [Compound 15] |  | 31% | 1410 nM |  |  |
| COc1cc([C@H](O)[C@@H](C)N)c(OC)cc1Br [Compound 8, (+)-erythro-(1S,2R)-1-Hydroxy-1-(4-bromo-2,5-dimethoxyphenyl)-2-aminopropane Hydrochloride] |  | 20% |  | 8000 nM | 57% |
| COc1cc([C@H](OC)[C@@H](C)N)c(OC)cc1Br [Compound 13, (+)-erythro-(1S,2R)-1-Methoxy-1-(4-bromo-2,5-dimethoxyphenyl)-2-aminopropane Oxalate] |  | 49% | 5040 nM | 4610 nM | 117% |
| CC[C@H](N)[C@H](O)c1cc(OC)c(Br)cc1OC (as salt: oxalate) [Compound 7, (−)-erythro-(1R,2S)-1-Hydroxy-1-(4-bromo-2,5-dimethoxyphenyl)-2-aminobutane Oxalate] | 203 to 205 °C |  |  |  |  |
| COc1cc(C(O)C(C)N)c(OC)cc1Br (single isomer, unassigned; (+)) (as salt: hydrochloride) [Compound 10] | 213 to 214 °C |  |  |  |  |
| COc1cc([C@@H](OC)[C@H](C)N)c(OC)cc1Br (as salt: oxalate) [Compound 12, (−)-erythro-(1R,2S)-1-Methoxy-1-(4-bromo-2,5-dimethoxyphenyl)-2-aminopropane Oxalate] | 186 to 188 °C |  |  |  |  |
| COc1cc([C@@H](O)[C@H](C)N)c(OC)cc1Br [Compound 9, (−)-erythro-(1R,2S)-1-Hydroxy-1-(4-bromo-2,5-dimethoxyphenyl)-2-aminopropane Hydro-chloride] |  | 22% | 84 nM | 1180 nM | 68% |
| COc1cc([C@@H](O)[C@@H](C)N)c(OC)cc1Br [Compound 11, (−)-threo-(1R,2R)-1-Hydroxy-1-(4-bromo-2,5-dimethoxyphenyl)-2-aminopropane Hydrochloride] |  | 54% | 96.9 nM | 1130 nM | 102% |
| COc1cc(C(O)CN)c(OC)cc1CCCc1ccccc1 (racemic) [Compound 5, (±)1-Hydroxy-1-[4-(3-phenylpropyl)-2,5-dimethoxyphenyl]-2-aminoethane Hydrochloride, reference compound] |  | 3.1% |  |  |  |
| COc1cc(C(O)C(C)N)c(OC)cc1Br (single isomer, unassigned; (+)) [Compound 10, Hydrochloride] |  | 16% |  |  | 47% |
| COc1cc([C@H](O)[C@@H](C)N)c(OC)cc1Br (as salt: hydrochloride) [Compound 8, (+)-erythro-(1S,2R)-1-Hydroxy-1-(4-bromo-2,5-dimethoxyphenyl)-2-aminopropane Hydrochloride] | 194 to 196 °C |  |  |  |  |
| CC[C@H](N)[C@H](O)c1cc(OC)c(Br)cc1OC [Compound 7, (−)-erythro-(1R,2S)-1-Hydroxy-1-(4-bromo-2,5-dimethoxyphenyl)-2-aminobutane Oxalate, reference compound] |  | 4.8% |  |  |  |
| COc1cc(C(O)CN)c(OC)cc1Br (stereo not shown) [Compound 6, reference compound] |  | 7.8% |  |  |  |
| COc1cc([C@@H](OC)[C@H](C)N)c(OC)cc1Br [Compound 12, (−)-erythro-(1R,2S)-1-Methoxy-1-(4-bromo-2,5-dimethoxyphenyl)-2-aminopropane Oxalate] |  | 54% | 1330 nM | 1080 nM | 100% |
